# Results: US7807462B2, “Method for producing a functional neuron” (University of Medicine and Dentistry of New Jersey, priority 2004, dated 2010)
# B1: IL-1α: Recombinant human IL-1α (rhIL-1α) provided by Hoffman LaRoche (protein, UniProt P01583 113-271, looked up)
# Interleukin-1 alpha: SAPFSFLSNVKYNFMRIIKYEFILNDALNQSIIRANDQYLTAAALHNLDEAVKFDMGAYKSSKDDAKITVILRISKTQLYVTAQDEDQPVLLKEMPEIPKTITGSETNLLFFWETHGTKNYFTSVAHPNLFIATKQDYWVCLAGGPPSITDFQILENQA
# Assays:
# [1] = test system: adult human mesenchymal stem cells (MSC); experiment: Whole-cell patch clamp electrophysiological recordings of RA-treated MSC; conditions: for postsynaptic current amplitude / postsynaptic current decay time / postsynaptic current frequency / postsynaptic current half rise time: voltage clamp
# [2] = test system: PPT-I gene expression in retinoic acid-treated MSC; experiment: In situ hybridization for β-PPT-I in RA-treated MSC; type: cell-based, human; conditions: cocktail of three antisense oligomers; three bone marrow donors
# Experimental: Thus, it was determined whether the PPT-I gene was expressed in retinoic acid-treated MSC by in situ hybridization with a cocktail of three oligomers.
# MSC were cultured as above on superfrost slides and then washed with 0.05% PBT. Cells were hybridized by incubation with 500 μL of hybridization buffer (Sigma, St. Louis, Mo.). After 2 hours, slides were incubated with 200 μL of hybridization buffer containing a cocktail (200 ng/mL) of denatured biotin-conjugated β-PPT-1-specific oligo probes based on GENBANK Accession No. U37529 (Table 1). Control slides were incubated with a mixture of similar oligos in the sense orientations. Slides were subsequently incubated overnight at 37° C. in a humid chamber. Slides were washed with SSC solution and hybrids detected by incubation for 1 hour at room temperature with FITC-streptavidin at 1/500 dilution. Slides were covered with PBS and immediately examined with an immunofluorescence microscope.
# [3] = test system: adult human mesenchymal stem cells (MSC); experiment: Microscopic examination of morphology of retinoic acid-treated MSC; type: cell-based; conditions: RA 30 μM
# Experimental: By way of illustration, MSC were treated with all-trans-retinoic acid and examined microscopically at 400× magnification. The purpose was to observe morphological changes as the cells were exposed to a known differentiating agent.
# [4] = test system: MSC treated with retinoic acid for 6 days (functional neurons); experiment: Immunofluorescence/immunohistochemistry for substance P (SP) in RA-treated MSC; type: cell-based, human
# Experimental: Administration or implantation of cultured neurons in a damaged tissue, in vivo, is influenced by the microenvironment. Thus, to determine whether a functional neuron could be influenced to express a particular neurotransmitter, expression of the preprotachykinin-I gene (PPT-I), which encodes the neurotransmitter substance P (SP), was analyzed. Regulation of the PPT-I gene has been studied in the context of inflammatory mediators that are presumed to be at the site of neural injury. […] Furthermore the receptor for IL-1 has been reported in neurons (Coti, et al. (2004) Frontier Biosci. 9:1433-1449). MSC, treated with retinoic acid for 6 days, were stimulated with 10 ng/mL of IL-1α for 16 hours and the cells studied for SP production by immunofluorescence using anti-SP. Treated cells were also labeled for synaptovesicle 2 to determine if SP is stored in synaptic vesicle. […] Retinoic acid-treated MSC were labeled with anti-SP and anti-synaptovesicle. The two labels were overlaid to gain insight as to the location of SP. […]
# MSC on superfrost slides were treated with RA. […] The latter determined whether SP was stored in synaptic vesicles. SP and anti-synaptic vesicle protein 2 were detected with anti-rabbit IgG FITC and anti-mouse IgG1 κ PE, respectively. […]
# [5] = test system: adult human mesenchymal stem cells (MSC); experiment: Immunofluorescence for neural-specific markers in RA-treated MSC; type: cell-based
# Experimental: It was subsequently determined whether the retinoic acid-treated MSC express neuron-specific proteins. Cells were labeled for MAP2, which predominantly labels the cell bodies and dendrites; Neurofilament to stain for cell bodies and axons; and nestin for changes in morphology to neuronal cells. Synaptophysin was also analyzed as it is an indicator of synaptic regions. Labeling with anti-MAP2 and anti-synaptophysin were performed at different times following retinoic acid treatment. Untreated MSCs stained dim with MAP2, but negative for synaptophysin. In contrast, retinoic acid-treated cells stained bright for MAP2 at each time point, i.e., day 6, day 9 and day 12 retinoic acid treatment. […] This pattern of synaptophysin increased up to day 12 of treatment. Patterns were similar in ten different experiments, each with MSC from a different bone marrow donor.
# RA-treated MSCs were washed with PBS (pH 7.4) and incubated for 1 hour at room temperature with the following antibodies: rabbit anti-MAP2 and/or synaptophysin monoclonal antibody at final concentrations of 1/500 and 1/200 respectively. In other labeling studies, cells were incubated with anti-GFAP, anti-neurofilament or anti-nestin, each at 1/500 final concentration. Antibodies were diluted in 0.05% TWEEN™/PBS (PBT) for membrane permeabilization. Primary antibodies were developed with secondary FITC-goat anti-rabbit IgG and PE-rat anti-mouse κ, both at final concentrations of 1/500. Secondary antibodies were incubated for 45 minutes at room temperature in the dark. After labeling, cells were fixed with 0.4% paraformaldehyde and then covered with VECTASHIELD®. Slides were immediately examined on a 3-color immunofluorescence microscope (NIKON® Instruments Inc., Melvelle, N.Y.).
# [6] = functional neurons in culture for 6 days
molecule,measurement,setting,value
"CC1=C(/C=C/C(C)=C/C=C/C(C)=C/C(=O)O)C(C)(C)CCC1 [retinoic acid, All-trans-retinoic acid]",resting membrane potential,[1]; current clamp,−50 mV
same,spontaneous action potential firing frequency,[1]; current clamp,20 s⁻¹
same,action potential amplitude,"[1]; current clamp, measured from resting membrane potential",63.4±17.4 mV
same,action potential half-width,"[1]; current clamp, n=768 events",19.25 ± 0.73 ms
same,action potential rise time,"[1]; current clamp, n=768 events",3.39 ± 0.11 ms
same,fit of decay of postsynaptic currents,[1]; [6],single exponential function
same,half rise time of some spontaneous post-synaptic currents,[1]; [6],around 2 ms
same,fit of decay of postsynaptic currents,[1]; functional neurons in culture for 15 days,two exponentials
same,treated cells showing action potential by electrophysiology,[1]; n=25,one hundred
same,postsynaptic current amplitude,"[1]; first set, n=171 events",29.9±1.3 pA
same,postsynaptic current decay time,"[1]; first set, n=171 events",36.5 ± 1.0 ms
same,postsynaptic current frequency,"[1]; first set, n=171 events",2.49 s⁻¹
same,postsynaptic current half rise time,"[1]; first set, n=171 events",12.96 ± 0.89 ms
same,postsynaptic current amplitude,"[1]; second set, n=99 events",6.1±0.2 pA
same,postsynaptic current decay time,"[1]; second set, n=99 events",31.3 ± 1.3 ms
same,postsynaptic current frequency,"[1]; second set, n=99 events",1.24 s⁻¹
same,postsynaptic current half rise time,"[1]; second set, n=99 events",1.84 ± 0.13 ms
same,PPT-I in situ hybridization fluorescence in cell bodies of neurons,[2],bright fluorescence
same,morphology of treated MSC,[3]; day 4,neuron-like structures
same,morphology of treated MSC,[3]; day 7,cell bodies with long thin processes and growth cones
same,morphology of treated MSC,"[3]; treated 1 day, 400× magnification",asymmetrical morphology
same,fluorescence for SP in unstimulated treated MSC,[4]; no IL-1α stimulation,dim fluorescence
same,synaptophysin fluorescence,[5]; 6-day treatment,slight fluorescence
same,glial fibrillary acidic protein (GFAP) staining,[5]; all treated cells,negative
same,synaptophysin fluorescence,[5]; day 9 of treatment,brighter fluorescence
same,MAP2 staining,"[5]; each time point: day 6, day 9 and day 12 of treatment, ten experiments",bright
same,"percentage of functional neurons developed, by immunostaining for neurofilament, MAP2 and nestin",[5]; n=100,80±10 percentage
same,synaptophysin fluorescence,[5]; up to day 12 of treatment,increased
B1,fluorescence intensity for SP,"[4]; MSC treated with retinoic acid 6 days, stimulated with 10 ng/mL IL-1α for 16 hours, six experiments",bright fluorescence intensity
